# How the values were obtained:
# [1] = biological target: GSPT1 (Homo sapiens, UniProt P15170+Q96SW2); test: HiBiT degradation assay, GSPT1, Procedure B (Molt 4_hGSPT1_HiBIT cells); type: cell-based; parameters: Molt 4_hGSPT1_HiBIT N-terminus tagged cells were generated using CRISPR technology; endogenous in cells; host or cells: Molt 4 cells, CRISPR-edited; conditions: six hours
# Description: Molt 4_hGSPT1_HiBIT N-terminus tagged cells were generated using CRISPR technology. Cells were maintained in RPMI media (Thermo Fisher Scientific, Catalog #11875-093) containing 10% Fetal Bovine Serum (Thermo Fisher Scientific, Catalog #16140071) 1% Penicillin-Streptomycin (Thermo Fisher Scientific, Catalog #25200056). Cells were maintained at 37° C. in a 5% CO2 environment.
# Compounds were spotted onto Cornin 384-Well, Cell Culture-Treated, Flat-Bottom, Low Flange Microplate (Fisher Scientific, Catalog #07-201-013) using a Tecan D300e digital dispenser. Ten-point dose response curves spanning from 10 μM to 0.005 μM with a 0.1% DMSO tolerance were used.
# Cells were centrifuged for 5 minutes at 1200 RPMs. Cell culture media was aspirated off and cells were resuspended with RPMI+10% FBS. Cell density was determined using a Denovix CellDrop BF cell counter. Cell density was adjusted to 1×10^6 cells/ml. 40 μl of cells was added to compound treated tissue culture plates and incubated for six hours at 37° C. After six hours, cell culture plates were removed from tissue culture incubator and cooled to room temperature. 40 μl of Nano-GloHiBiT Lytic Detection Reagent (Promega, Catalog #N3040) was added to each well. Plates were placed on an orbital shaker (600 rpm) for 20 minutes. Luminescence was measured using an Envsion plate reader (Perkin Elmer). IC50 curves and Ymin were generated using a 4-parameter curve fit with GraphPad Prism software (Prism Corporation).
# Results from the HiBiT assay (DC50 (nM) and Ymin (% remaining)) are shown below. All CK1α data was generated according to Procedure A. GSPT1 data for Examples 1-600, 603-620 and 703-705 was generated according to Procedure A. GSPT1 data for Examples 601, 621-702 and 706-735 was generated according to Procedure B.
# [2] = biological target: T1, CK1α (Homo sapiens, UniProt P48729+Q96SW2); test: HiBiT degradation assay, CK1α, Procedure A; type: cell-based; conditions: six hours
# T1 construct: CSNK1A1-HiBit KI HEK293(LgBit) Cells; host or cells: HEK293(LgBit) knock-in cells
# T1 sequence (P48729 whole entry): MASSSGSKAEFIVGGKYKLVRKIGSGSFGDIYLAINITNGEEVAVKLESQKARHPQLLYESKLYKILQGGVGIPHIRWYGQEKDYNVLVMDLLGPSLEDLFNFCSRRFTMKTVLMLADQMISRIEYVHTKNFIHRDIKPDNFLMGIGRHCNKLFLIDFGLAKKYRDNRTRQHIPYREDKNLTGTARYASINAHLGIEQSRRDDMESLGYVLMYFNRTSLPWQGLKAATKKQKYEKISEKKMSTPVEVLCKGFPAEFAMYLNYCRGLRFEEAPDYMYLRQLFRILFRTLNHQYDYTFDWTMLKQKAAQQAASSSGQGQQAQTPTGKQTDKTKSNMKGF
# T1 sequence (Q96SW2 whole entry): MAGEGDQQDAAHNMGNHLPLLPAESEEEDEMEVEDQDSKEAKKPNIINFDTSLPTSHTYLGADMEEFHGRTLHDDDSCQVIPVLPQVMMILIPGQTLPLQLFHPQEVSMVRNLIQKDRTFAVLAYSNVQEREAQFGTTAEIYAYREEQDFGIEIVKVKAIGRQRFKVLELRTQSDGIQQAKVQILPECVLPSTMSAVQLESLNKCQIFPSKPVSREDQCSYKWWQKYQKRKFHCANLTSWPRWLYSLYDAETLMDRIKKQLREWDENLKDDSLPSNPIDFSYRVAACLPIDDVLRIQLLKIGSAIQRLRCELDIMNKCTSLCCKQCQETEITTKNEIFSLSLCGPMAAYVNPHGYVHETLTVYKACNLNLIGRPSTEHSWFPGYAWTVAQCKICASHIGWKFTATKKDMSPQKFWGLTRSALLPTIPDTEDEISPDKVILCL
# T1 sequence (Q16531 whole entry partner): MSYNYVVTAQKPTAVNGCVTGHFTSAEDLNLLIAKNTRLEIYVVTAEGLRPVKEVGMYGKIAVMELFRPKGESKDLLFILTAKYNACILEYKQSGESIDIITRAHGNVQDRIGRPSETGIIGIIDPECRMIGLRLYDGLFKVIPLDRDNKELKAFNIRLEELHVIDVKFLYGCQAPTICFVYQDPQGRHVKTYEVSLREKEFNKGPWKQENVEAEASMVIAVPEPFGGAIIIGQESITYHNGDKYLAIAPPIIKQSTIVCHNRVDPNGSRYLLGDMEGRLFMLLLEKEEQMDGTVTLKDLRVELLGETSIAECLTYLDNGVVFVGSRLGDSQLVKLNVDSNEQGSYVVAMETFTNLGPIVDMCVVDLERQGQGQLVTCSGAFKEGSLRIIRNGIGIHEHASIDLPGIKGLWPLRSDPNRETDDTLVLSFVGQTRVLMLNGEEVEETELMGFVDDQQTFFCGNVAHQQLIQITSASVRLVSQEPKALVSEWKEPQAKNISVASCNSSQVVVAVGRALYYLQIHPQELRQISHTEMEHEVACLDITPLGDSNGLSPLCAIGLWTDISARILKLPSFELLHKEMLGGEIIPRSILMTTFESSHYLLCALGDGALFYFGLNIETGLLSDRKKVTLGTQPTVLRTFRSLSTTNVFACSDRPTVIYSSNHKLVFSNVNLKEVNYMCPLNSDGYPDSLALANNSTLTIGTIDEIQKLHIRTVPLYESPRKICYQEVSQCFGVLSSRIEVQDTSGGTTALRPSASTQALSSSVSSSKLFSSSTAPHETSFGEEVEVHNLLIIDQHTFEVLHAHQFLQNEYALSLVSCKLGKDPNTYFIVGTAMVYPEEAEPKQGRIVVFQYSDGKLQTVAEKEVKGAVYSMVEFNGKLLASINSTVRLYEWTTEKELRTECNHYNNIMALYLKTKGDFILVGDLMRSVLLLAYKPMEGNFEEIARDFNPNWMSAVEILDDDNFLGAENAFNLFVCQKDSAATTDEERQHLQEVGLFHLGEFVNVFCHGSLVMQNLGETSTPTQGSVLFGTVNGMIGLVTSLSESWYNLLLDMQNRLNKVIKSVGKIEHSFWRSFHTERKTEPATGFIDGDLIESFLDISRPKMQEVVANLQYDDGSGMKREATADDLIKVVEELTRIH
# In short: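 Six-hour treatment at 37° C, ten doses between 10 μM and 0.005 μM, then HiBiT lytic luminescence. Fitted DC50 and Ymin.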
# Chain of GSPT1 (P15170 whole entry): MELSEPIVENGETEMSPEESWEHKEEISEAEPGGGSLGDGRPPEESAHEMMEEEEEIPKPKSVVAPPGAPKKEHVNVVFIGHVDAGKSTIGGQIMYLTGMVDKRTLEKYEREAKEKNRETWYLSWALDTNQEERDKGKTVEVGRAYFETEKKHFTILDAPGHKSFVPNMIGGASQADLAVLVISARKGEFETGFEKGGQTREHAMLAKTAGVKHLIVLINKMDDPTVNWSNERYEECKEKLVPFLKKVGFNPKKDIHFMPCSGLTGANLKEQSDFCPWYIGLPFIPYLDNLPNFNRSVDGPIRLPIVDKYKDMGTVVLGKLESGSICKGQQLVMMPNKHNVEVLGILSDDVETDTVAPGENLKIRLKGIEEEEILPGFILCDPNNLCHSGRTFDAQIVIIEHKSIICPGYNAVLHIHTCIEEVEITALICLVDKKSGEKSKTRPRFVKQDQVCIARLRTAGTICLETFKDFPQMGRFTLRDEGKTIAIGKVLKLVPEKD
# Chain of GSPT1 (Q96SW2 whole entry): as the sequence (Q96SW2 whole entry) above
# Chain of GSPT1 (Q16531 whole entry partner): as the sequence (Q16531 whole entry partner) above
Compound,DC50 [1] [nM],GSPT1 Ymin [1],CK1α Ymin [2],DC50 [2] [nM]
Cn1cc(-c2ccc3c(c2)CN(C2CCC(=O)NC2=O)C3=O)nc1-c1ccc2nccn2c1 (centres unmarked) [Example 658],≥ 25,F (F = >75-100% remaining),D (D = >10- 25% remaining),≥ 25
Cn1cc(-c2ccc3c(c2)CN(C2CCC(=O)NC2=O)C3=O)nc1-c1cncc2ccccc12 (centres unmarked) [Example 659],≥ 25,F (F = >75-100% remaining),E (E = >25-75% remaining),< 25
Cn1cc(-c2ccc3c(c2)CN(C2CCC(=O)NC2=O)C3=O)nc1-c1ccc2ncccc2c1 (centres unmarked) [Example 660],< 25,E (E = >25-75% remaining),D (D = >10- 25% remaining),< 25
Cn1cc(-c2ccc3c(c2)CN(C2CCC(=O)NC2=O)C3=O)nc1-c1ccc(Cl)c(F)c1 (centres unmarked) [Example 661],≥ 25,F (F = >75-100% remaining),E (E = >25-75% remaining),< 25
Cn1cc(-c2ccc3c(c2)CN(C2CCC(=O)NC2=O)C3=O)nc1-c1c[nH]c2ncccc12 (centres unmarked) [Example 662],≥ 25,F (F = >75-100% remaining),E (E = >25-75% remaining),< 25
Cc1ccc(-c2nc(-c3ccc4c(c3)CN(C3CCC(=O)NC3=O)C4=O)cn2C)c(N)c1 (centres unmarked) [Example 663],< 25,F (F = >75-100% remaining),E (E = >25-75% remaining),< 25
Cn1cc(-c2ccc3c(c2)CN(C2CCC(=O)NC2=O)C3=O)nc1-c1ccsc1 (centres unmarked) [Example 664],≥ 25,E (E = >25-75% remaining),E (E = >25-75% remaining),< 25
Cn1cc(-c2ccc3c(c2)CN(C2CCC(=O)NC2=O)C3=O)nc1-c1ccc(-n2cccn2)cc1 (centres unmarked) [Example 665],≥ 25,D (D = >10- 25% remaining),E (E = >25-75% remaining),< 25
Cn1cc(-c2ccc3c(c2)CN(C2CCC(=O)NC2=O)C3=O)nc1-c1ccc(N2CCOCC2)cc1 (centres unmarked) [Example 666],≥ 25,F (F = >75-100% remaining),E (E = >25-75% remaining),< 25
Cn1cc(-c2ccc3c(c2)CN(C2CCC(=O)NC2=O)C3=O)nc1-c1ccc(Cl)c(C(F)(F)F)c1 (centres unmarked) [Example 667],< 25,F (F = >75-100% remaining),E (E = >25-75% remaining),< 25
Cn1cc(-c2ccc3c(c2)CN(C2CCC(=O)NC2=O)C3=O)nc1-c1ccc(CN2CCOCC2)cc1 (centres unmarked) [Example 668],≥ 25,F (F = >75-100% remaining),E (E = >25-75% remaining),< 25
Cn1cc(-c2ccc3c(c2)CN(C2CCC(=O)NC2=O)C3=O)nc1-c1cccc(C(N)=O)c1 (centres unmarked) [Example 669],≥ 25,F (F = >75-100% remaining),E (E = >25-75% remaining),≥ 25
Cc1ccc(-c2nc(-c3ccc4c(c3)CN(C3CCC(=O)NC3=O)C4=O)cn2C)c(F)c1 (centres unmarked) [Example 670],≥ 25,F (F = >75-100% remaining),E (E = >25-75% remaining),< 25
Cn1cc(-c2ccc3c(c2)CN(C2CCC(=O)NC2=O)C3=O)nc1-c1ccc2c(c1)CCCO2 (centres unmarked) [Example 671],≥ 25,F (F = >75-100% remaining),E (E = >25-75% remaining),< 25
Cn1cc(-c2ccc3c(c2)CN(C2CCC(=O)NC2=O)C3=O)nc1-c1cccc2cnccc12 (centres unmarked) [Example 672],< 25,F (F = >75-100% remaining),E (E = >25-75% remaining),< 25
COc1ccccc1-c1nc(-c2ccc3c(c2)CN(C2CCC(=O)NC2=O)C3=O)cn1C (centres unmarked) [Example 673],< 25,F (F = >75-100% remaining),E (E = >25-75% remaining),< 25
Cc1ccc(N)cc1-c1nc(-c2ccc3c(c2)CN(C2CCC(=O)NC2=O)C3=O)cn1C (centres unmarked) [Example 674],≥ 25,F (F = >75-100% remaining),E (E = >25-75% remaining),< 25
Cc1ccc(-c2nc(-c3ccc4c(c3)CN(C3CCC(=O)NC3=O)C4=O)cn2C)cc1F (centres unmarked) [Example 675],< 25,F (F = >75-100% remaining),E (E = >25-75% remaining),< 25
Cn1cc(-c2ccc3c(c2)CN(C2CCC(=O)NC2=O)C3=O)nc1-c1cccc2ccccc12 (centres unmarked) [Example 676],≥ 25,F (F = >75-100% remaining),E (E = >25-75% remaining),< 25
Cn1cc(-c2ccc3c(c2)CN(C2CCC(=O)NC2=O)C3=O)nc1-c1ccc(F)c(C#N)c1 (centres unmarked) [Example 677],≥ 25,–,E (E = >25-75% remaining),< 25
Cn1cc(-c2ccc3c(c2)CN(C2CCC(=O)NC2=O)C3=O)nc1-c1ccc2c(c1)CCC(=O)N2 (centres unmarked) [Example 678],< 25,F (F = >75-100% remaining),E (E = >25-75% remaining),≥ 25
Cn1cc(-c2ccc3c(c2)CN(C2CCC(=O)NC2=O)C3=O)nc1-c1nn(C)c2ccccc12 (centres unmarked) [Example 679],≥ 25,F (F = >75-100% remaining),D (D = >10- 25% remaining),< 25
Cn1cc(-c2ccc3c(c2)CN(C2CCC(=O)NC2=O)C3=O)nc1-c1ccc2c(c1)OCO2 (centres unmarked) [Example 680],≥ 25,E (E = >25-75% remaining),C (C = 0-10% remaining),< 25
Cn1cc(-c2ccc3c(c2)CN(C2CCC(=O)NC2=O)C3=O)nc1-c1cccc(OCc2ccccc2)c1 (centres unmarked) [Example 681],< 25,D (D = >10- 25% remaining),C (C = 0-10% remaining),< 25
Cn1cc2cc(-c3nc(-c4ccc5c(c4)CN(C4CCC(=O)NC4=O)C5=O)cn3C)ccc2n1 (centres unmarked) [Example 682],< 25,F (F = >75-100% remaining),C (C = 0-10% remaining),< 25
COc1ccc(C#N)cc1-c1nc(-c2ccc3c(c2)CN(C2CCC(=O)NC2=O)C3=O)cn1C (centres unmarked) [Example 684],< 25,F (F = >75-100% remaining),E (E = >25-75% remaining),< 25
Cn1cc(-c2ccc3c(c2)CN(C2CCC(=O)NC2=O)C3=O)nc1-c1ccnc2ccccc12 (centres unmarked) [Example 686],< 25,F (F = >75-100% remaining),C (C = 0-10% remaining),< 25

# From patent publication US20240158370A1, “CK1 alpha AND DUAL CK1 alpha / GSPT1 DEGRADING COMPOUNDS” (Innovo Therapeutics, Inc., priority 2022, published 2024)
